Results: PubChem BioAssay (NCI)
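In this assay, cells in 96-well plates receive the compound at five concentrations for 48 hours. Endpoints are linearly interpolated between the surrounding concentrations. TGI: total growth inhibition.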

Legend:
Assay in all cases: DTP human tumour cell line panel, 48 h
A549 NSCLC = test system: A549 NSCLC
COLO 205 colon = test system: COLO 205 colon
K-562 leukemia = test system: K-562 leukemia
M14 melanoma = test system: M14 melanoma
NCI-H522 lung = test system: NCI-H522 lung
SK-MEL-28 melanoma = test system: SK-MEL-28 melanoma
SK-OV-3 ovarian = test system: SK-OV-3 ovarian
SR leukemia = test system: SR leukemia
MCF7 breast = test system: MCF7 breast
NCI/ADR-RES ovarian = test system: NCI/ADR-RES ovarian

Structure (SMILES)	TGI (A549 NSCLC)	TGI (COLO 205 colon)	TGI (K-562 leukemia)	TGI (M14 melanoma)	TGI (NCI-H522 lung)	TGI (SK-MEL-28 melanoma)	TGI (SK-OV-3 ovarian)	TGI (SR leukemia)	TGI (MCF7 breast)	TGI (NCI/ADR-RES ovarian)
O=C1NC(Cc2ccccc2)C(=O)N2CCCC12 (centres undefined)	> 100 µM	> 100 µM	> 100 µM	> 100 µM	> 100 µM	> 100 µM	> 100 µM	> 100 µM		
N/C(=N/N=C/c1cccc(F)c1)NO	98.7 µM	> 100 µM	> 100 µM	56 µM	96.1 µM	> 100 µM	> 100 µM	> 100 µM		
COc1ccc(Oc2nc3c(N)cc(C(F)(F)F)cc3nc2-c2ccccc2)cc1		25.6 µM	> 100 µM	41.3 µM		> 100 µM	43.7 µM	> 100 µM	23.8 µM	> 100 µM
CCOP(=O)(OCC)C(C)(CC)/N=C(\N)NC#N (centres undefined)	> 100 µM	> 100 µM	> 100 µM	> 100 µM		> 100 µM	> 100 µM	> 100 µM	> 100 µM	> 100 µM
CCOC(=O)[C@@]12NN=N[C@@H]1[C@H]1CO[C@H](c3ccccc3)N1C2=O	> 100 µM	23.5 µM		33 µM	13.1 µM	19.5 µM	33.6 µM		25.3 µM	75.9 µM
O=C(NCCCc1cn[nH]c(=O)n1)c1cccc2nc3ccccc3nc12	> 100 µM	> 100 µM	> 100 µM	> 100 µM		> 100 µM	> 100 µM	> 100 µM	> 100 µM	> 100 µM
Cc1ccc(Cc2n[nH]c(=O)n2N2C(=O)c3ccccc3C2=O)cc1	> 100 µM	> 100 µM	> 100 µM	> 100 µM		> 100 µM		> 100 µM	> 100 µM	> 100 µM
COc1ccc(OC)c(-c2cc(=O)c3cc4c(cc3[nH]2)OCO4)c1	> 71.3 µM	7.93 µM	> 100 µM	> 100 µM	9.26 µM	> 100 µM	17.7 µM	> 27.9 µM		
COC(=O)CC1NC(=O)C1C(C)(OC)OC (centres undefined)	> 100 µM	> 100 µM	> 100 µM	> 100 µM		> 100 µM		> 100 µM		
COc1cccc(/C=N/NC(=O)CN(C)C)c1O	> 100 µM	> 100 µM	> 100 µM	> 100 µM	> 100 µM	> 100 µM	> 100 µM		> 100 µM	> 100 µM
C[C@]12CCC(=O)C=C1CC[C@@H]1C2CC[C@@]2(C)C1CC[C@@H]2OC(=O)C12OC1CCC2=O (some centres undefined)	54.6 µM	34.4 µM	59.4 µM	32.9 µM	23.1 µM	31.6 µM	> 100 µM	53.4 µM		
COc1ccc(C=NCCCN=Cc2ccc(OC)cc2O)c(O)c1	> 100 µM		> 100 µM	> 100 µM	> 100 µM	> 100 µM		> 100 µM	> 100 µM	
CCCCc1c2c(nc3c1CCCC3=O)CCCC2	> 100 µM	> 100 µM	> 100 µM	> 100 µM	> 100 µM	> 100 µM	> 100 µM	> 100 µM		
